These results are taken from US20060141054A1, “Metal coordinated compositions” (priority 2004, published 2006).

For series [1] the following is noted: water, 0.15 m kcl.
Protocol: (§1) Determination of pKa and log P was done by potentiometry and spectrophotometry. The potentiometric method includes the use of expert software to calculate pKa and log P from simple acid and base titrations of the analytes. The pKa was first determined by weighing approximately 2 mg of pure substance into an assay vial. […] The solution was then titrated with acid (0.5N HCl) or base (0.5N NaOH) to the final pH.
(§2) A minimum of three ratios of water/DMSO was titrated to obtain psKa (apparent pKa in the presence of cosolvent). The aqueous pKa was determined by extrapolation using the Yasuda-Shedlovsky technique.
The nature of series [2]: Log D at pH 7.4 (octanol/water). Format: physicochemical.
Protocol: Log D is the log distribution coefficient at a particular pH (Equation 8). […] Log D=log10(Distribution Coefficient) Equation 8
as §1
The log P was determined by a titration in the presence of octanol (water saturated). The pKa in water and the apparent pKa in the presence of octanol (poKa) were compared and the log P determined. Ion-pairing (partitioning of a charged species into octanol, termed log P^+ or log P^−) were determined with an additional titration in the presence of another volume of octanol. Using experimentally determined pKa and log P, a drug lipophilicity profile (log D. vs. pH) was calculated. The log D7.4 was determined from this profile at pH 7.4.
The nature of another series: physchem. Particulars: water, 0.15 m kcl.
Series [3] in a line: Equilibrium/stability constants of zinc complexes. Format: physicochemical. Particulars: approximated.
A short description of series [4]: Equilibrium/stability constants of magnesium complexes. Format: physicochemical. As to conditions: estimated from literature precedents of similar compounds.

By pKa is commonly meant the negative logarithm of the acid dissociation constant.

Protocol for physchem: as §1, §2

Turning to `N[C@@H](Cc1cc(I)c(Oc2ccc(O)c(I)c2)c(I)c1)C(=O)[O-].N[C@@H](Cc1cc(I)c(Oc2ccc(O)c(I)c2)c(I)c1)C(=O)[O-].[Zn+2]` [Bis(triiodothyroninato)zinc], in series [1], the “pKa (first listed)” value is on record as 6.66 and the “pKa (second listed)” value turned out to be 6.42. In addition, the “Log D7.4” value in series [2] is 3.43.
With `N[C@@H](Cc1cc(I)c(Oc2ccc(O)c(I)c2)c(I)c1)C(=O)O` [Triiodothyronine], the pKa in “physchem” (pKa (first listed)) was 8.41; in “physchem” (pKa (second listed)) it was 8.07. Moreover, the logD in series [2] (Method Potentiometric, read-out: Log D7.4) was determined as 2.8.
Consider `N[C@@H](Cc1ccccc1)C(=O)O.[Zn]` [phenylalanine-zinc], for which the “cumulative binding constant, β2” value in series [3] is reported as 8.5.
As for Bis(acycloguanosinato)magnesium, the “log Keq (estimated)” value in series [4] is given as 1.6.
